# From publication PMC10139140, “Synthesis of Novel 2-(Cyclopentylamino)thiazol-4(5H)-one Derivatives with Potential Anticancer, Antioxidant, and 11β-HSD Inhibitory Activities” (International Journal of Molecular Sciences, 2023)
# “Also recorded” adds a separate entry of the source.
# Tests used:
# U-118 MG cells [1] = assay: Reactive oxygen species level (dihydroethidium probe), U-118 MG; type: cell-based; settings: 500 µM, 72 h
# Method: (§1) The BJ (CRL-2522), Caco-2 (HTB-37), PANC-1 (CRL-1469), U-118 MG (HTB-15), SK-MEL-30 (ACC 151), and MDA-MB-231 (HTB-26) cell lines were purchased from ATCC (Manassas, VA, USA) or DSMZ (Braunschweig, GERMANY). Cells were cultured in accordance with manufacturers' recommendations in a DMEM, MEM, or RPMI-1640 (Sigma, Saint Louis, MO, USA; Gibco, Waltham, MA, USA), supplemented with 10% FBS, except for Caco-2 (20%) (Thermo Fisher Scientific, Waltham, MA, USA) and 1% antibiotic mix solution (penicillin, streptomycin; Thermo Fisher Scientific, Waltham, MA, USA) in a humidified atmosphere with 5% CO2 at 37 °C. All cell lines were cultured in T75 cell culture flasks or cell culture dishes to reach 80–90% confluency and seeded at a standard density of 5 × 10^3 cells/0.32 cm^2, except for BJ cells at 2 × 10^3 cells/0.32 cm^2.
# (§2) The assay was performed following previously reported method. The cells (BJ, Caco-2, PANC-1, U-118 MG, SK-MEL-30, and MDA-MB-231) were seeded at an established density into 96-well black plates. Measurement of intracellular superoxide, nitric oxide, and free thiol levels were assessed with the use of fluorogenic probes: dihydroethidium (Cayman Chemical, Ann Arbor, MI, USA, #12013), DAF-2 diacetate (Cayman Chemical, Ann Arbor, MI, USA, #85165), and Thiol Tracker Violet (Thermo Scientific, Waltham, MA, USA, #T10095). After compound treatment (72 h), the cells were probed at a final concentration of 5 µM each for 15 min at 37 °C. Quantifications were taken with a BioTek–Synergy H1 microplate reader, and the results are presented as mean values + SD.
# U-118 MG cells [2] = assay: Reactive nitrogen species level (DAF-2 diacetate probe), U-118 MG; type: cell-based; settings: 500 µM, 72 h
# Method: as §1, §2
# MDA-MB-231 cells [3] = assay: Reactive nitrogen species level (DAF-2 diacetate probe), MDA-MB-231; type: cell-based, human; settings: MDA-MB-231, 500 µM, 72 h
# Method: as §1
# (§3) The assay was performed following previously reported method. […] Measurement of intracellular superoxide, nitric oxide, and free thiol levels were assessed with the use of fluorogenic probes: dihydroethidium (Cayman Chemical, Ann Arbor, MI, USA, #12013), DAF-2 diacetate (Cayman Chemical, Ann Arbor, MI, USA, #85165), and Thiol Tracker Violet (Thermo Scientific, Waltham, MA, USA, #T10095). […] Quantifications were taken with a BioTek–Synergy H1 microplate reader, and the results are presented as mean values + SD.
# Caco-2 cells = assay: Reactive oxygen species level (dihydroethidium probe), Caco-2; type: cell-based, human; settings: Caco-2, 500 µM, 72 h
# Method: as §1, §2
# BJ cells [4] = assay: Reactive nitrogen species level (DAF-2 diacetate probe), BJ; type: cell-based; settings: 500 µM, 72 h
# Method: as §1, §3
# PANC-1 cells = assay: Reactive nitrogen species level (DAF-2 diacetate probe), PANC-1; type: cell-based, human; settings: PANC-1, 500 µM, 72 h
# Method: as §1, §3
# MDA-MB-231 cells [5] = assay: Reactive oxygen species level (dihydroethidium probe), MDA-MB-231; type: cell-based, human; settings: MDA-MB-231, 500 µM, 72 h
# Method: as §1, §2
# BJ cells [6] = assay: Reactive oxygen species level (dihydroethidium probe), BJ; type: cell-based; settings: 500 µM, 72 h
# Method: as §1, §2
# [7] = system: all cell lines tested (BJ, Caco-2, PANC-1, U-118 MG, SK-MEL-30, MDA-MB-231); assay: Reduced glutathione level (Thiol Tracker Violet probe), all cell lines tested; type: cell-based; settings: 500 µM, 72 h
# Method: as §1, §3
SMILES,level of reactive oxygen species (ROS) (U-118 MG cells [1]),level of reactive nitrogen species (RNS) (U-118 MG cells [2]),level of reactive oxygen species (ROS) (Caco-2 cells),level of reactive oxygen species (ROS) (MDA-MB-231 cells [5]),level of reactive oxygen species (ROS) (BJ cells [6]),further results
"CC1SC(NC2CCCC2)=NC1=O (centres unmarked) [Compound 3a, 2-(cyclopentylamino)-5-methylthiazol-4(5H)-one]",high increase,increase,–,–,–,level of reactive nitrogen species (RNS) (MDA-MB-231 cells [3]): increase
"CCC1SC(NC2CCCC2)=NC1=O (centres unmarked) [Compound 3b, 2-(cyclopentylamino)-5-ethylthiazol-4(5H)-one]",high increase,–,high increase,–,–,level of reactive nitrogen species (RNS) (BJ cells [4]): increase
"CCCC1SC(NC2CCCC2)=NC1=O (centres unmarked) [Compound 3c, 2-(cyclopentylamino)-5-propylthiazol-4(5H)-one]",–,–,high increase,–,–,–
"CC(C)C1SC(NC2CCCC2)=NC1=O (centres unmarked) [Compound 3d, 2-(cyclopentylamino)-5-isopropylthiazol-4(5H)-one]",–,increase,–,–,–,–
"CC1(C)SC(NC2CCCC2)=NC1=O [Compound 3e, 2-(cyclopentylamino)-5,5-dimethylthiazol-4(5H)-one]",high increase,–,high increase,–,–,level of reactive nitrogen species (RNS) (PANC-1 cells): increase
"O=C1N=C(NC2CCCC2)SC1c1ccc(Br)cc1 (centres unmarked) [Compound 3g, 2-(cyclopentylamino)-5-(4-bromophenyl)thiazol-4(5H)-one]",–,–,high increase,increase,increase,level of reduced glutathione [7]: low level; also recorded: especially strong reduction
"O=C1N=C(NC2CCCC2)SC12CCCCC2 [Compound 3h, 2-(cyclopentylamino)-1-thia-3-azaspiro[4.5]dec-2-en-4-one]",high increase,increase,–,increase,increase,–
"O=C1N=C(NC2CCCC2)SC12CCC2 [Compound 3i, 6-(cyclopentylamino)-5-thia-7-azaspiro[3.4]oct-6-en-8-one]",high increase,–,high increase,increase,increase,–
